Data: PMC12163725, “Synthesis and functionalization of vinyl sulfonimidamides and their potential as electrophilic warheads” (Chemical Science, 2025)

Experiment: Kinetic study of reaction with glutathione (GSH), half-life by 1H NMR (disappearance of vinyl group)
Details: second order kinetics, 1.0 equiv. glutathione, phosphate buffer pH 7.3 in D2O:(CD3)2SO = 2:1, 1H NMR
Protocol: The reactivity of the vinyl sulfonimidamides was next examined under biologically relevant conditions using glutathione (GSH) as the nucleophile at pH 7.3 (Scheme 4).[32] The half-life (t1/2) was determined using ^1H NMR analysis, with the disappearance of the vinyl group monitored as a function of time (full experimental details are provided in the ESI ^†). […] Due to the rapid reaction rates, the half-life for the majority of substrates was calculated using second-order kinetics. However, the half-life of unfunctionalized α-Me and β-Me-substituted sulfonimidamide derivatives were determined with pseudo-first-order kinetics using six equivalents of glutathione.
Reaction was conducted in a mixture of buffer solution and deuterated DMSO
(Buffer:(CD3)2SO = 2:1). A relatively high (CD3)2SO ratio was employed due to the insolubility
of less polar substrates in the buffer solution.
Buffer solution containing 0.0648 mol/L disodium hydrogen phosphate and 0.0153 mol/L
potassium dihydrogen phosphate at p H 7.3[10] was prepared using d euterium oxide and
stored at 20 °C. […] The stock solution […]
For the majority of substrates, the half-life was determined using second order kinetics with […]
was measured and plotted as the inverse against time. The half-life was calculated through […]
starting material was plotted as natural log and the half-life was calculated through the best-

C=CS(=O)(=NS(C)(=O)=O)N1CCOCC1 (stereo not shown) [Compound 3e]
Half-life (t1/2) of reaction with GSH: too fast to be determined
